According to ChEMBL document CHEMBL6083229, “Bisubstrate inhibitors of 6-hydroxymethyl-7,8-dihydroptein pyrophosphokinase: Toward cell permeability” (Bioorg Med Chem Lett, 2024):
Values after ≈ are worked out from the molar mass of the structure shown.

How the values were obtained:
[1] = tested on: Staphylococcus epidermidis; assay: Antibacterial activity against Staphylococcus epidermidis assessed as inhibition of bacterial growth in LB media; assay type: functional
[2] = Binding affinity to HPPK (unknown origin) assessed as dissociation constant by MST analysis; parameters: species or system Bacteria
Escherichia coli = assay: Antibacterial activity against Escherichia coli MG1655 assessed as inhibition of bacterial growth in LB media; assay type: functional

MIC50 [1]: 120 µM (≈ 72.1 µg/mL)
MIC90 [1]: 240 µM (≈ 144 µg/mL)
MIC ([1]; read-out: MIC100): 400 µM (≈ 240 µg/mL)
Kd [2]: 12.8 µM
MIC10 (Escherichia coli): 400 µM (≈ 240 µg/mL)
MIC30 (Escherichia coli): 2000 µM (≈ 1200 µg/mL)
Structure (SMILES): Nc1nc2[nH]cc(CCCN3CCC(SC[C@H]4O[C@@H](n5cnc6c(N)ncnc65)[C@H](O)[C@@H]4O)CC3C(=O)O)c2c(=O)[nH]1 (stereo partly specified)
